Columns and labels:
Experiment in all cases: Bliss excess, mean over the matrix (fraction); higher = more synergy
[1] = system: TE-5 (Esophageal Squamous Cell Carcinoma)
How it was run: (§1)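 After 24 hours at 37°C and 5% CO2 in 1536-well plates, cells in DMEM/F12 or RPMI plus 10% FBS received two-drug dose matrices for 72 hours. Viability came from CellTiter-Glo 2.0 luminescence and was scaled as inhibition, anchored at 0 by vehicle wells and at 1 by blank wells. Combination Emax is taken as the second-highest inhibition in the matrix, and Bliss excess as the observed combination effect less EA + EB − EA·EB, with EA and EB the single-agent effects.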

[2] = system: MDA-MB-231 (Breast Carcinoma)
How it was run: as §1

[3] = system: SW780 (Bladder Carcinoma)
How it was run: as §1

[4] = system: LS-513 (Colorectal Carcinoma)
How it was run: as §1

ES7 (Ewing's Sarcoma) = system: ES7 (Ewing's Sarcoma)
How it was run: as §1

[5] = system: NCI-H1793 (Lung Adenocarcinoma)
How it was run: as §1

SK-N-FI (Neuroblastoma) = system: SK-N-FI (Neuroblastoma)
How it was run: as §1

[6] = system: MDA-MB-157 (Breast Carcinoma)
How it was run: as §1

NCI-H2369 (Mesothelioma) = system: NCI-H2369 (Mesothelioma)
How it was run: as §1

[7] = system: DOV13 (Ovarian Carcinoma)
How it was run: as §1

IGR-1 (Melanoma) = system: IGR-1 (Melanoma)
How it was run: as §1

[8] = system: JiyoyeP-2003 (Burkitt's Lymphoma)
How it was run: as §1

CAL-78 (Chondrosarcoma) = system: CAL-78 (Chondrosarcoma)
How it was run: as §1

[9] = system: COR-L23 (Non-Small Cell Lung Carcinoma)
How it was run: as §1

[10] = system: MFH-ino (Other Solid Carcinomas)
How it was run: as §1

[11] = system: NCI-H1781 (Lung Adenocarcinoma)
How it was run: as §1

[12] = system: DMS-273 (Small Cell Lung Carcinoma)
How it was run: as §1

[13] = system: HCC2157 (Breast Carcinoma)
How it was run: as §1

DSH1 (Bladder Carcinoma) = system: DSH1 (Bladder Carcinoma)
How it was run: as §1

[14] = system: SW1088 (Low Grade Glioma)
How it was run: as §1

Structure (SMILES)	Bliss excess [1]	Bliss excess [2]	Bliss excess [3]	Bliss excess [4]	Bliss excess (ES7 (Ewing's Sarcoma))	Bliss excess [5]	Bliss excess (SK-N-FI (Neuroblastoma))	Bliss excess [6]	Bliss excess (NCI-H2369 (Mesothelioma))	Bliss excess [7]	Bliss excess (IGR-1 (Melanoma))	Bliss excess [8]	Bliss excess (CAL-78 (Chondrosarcoma))	Bliss excess [9]	Bliss excess [10]	Bliss excess [11]	Bliss excess [12]	Bliss excess [13]	Bliss excess (DSH1 (Bladder Carcinoma))	Bliss excess [14]
C=CCn1c(=O)c2cnc(Nc3ccc(N4CCN(C)CC4)cc3)nc2n1-c1cccc(C(C)(C)O)n1 [AZD1775] + O=C(c1cc(Cc2n[nH]c(=O)c3ccccc23)ccc1F)N1CCN(C(=O)C2CC2)CC1 [Olaparib] (first compound max 1 µM, partner max 10 µM)	-0.0488	-0.0267	-0.0262	0.0008	-0.0453	-0.0145	-0.0569	-0.0379	-0.084	-0.0389	0.0054	-0.0086	-0.0833	-0.0182	-0.0128	-0.0451	-0.0334	-0.0187	-0.0534	0.0045
Cn1cnc2c(F)c(Nc3ccc(Br)cc3Cl)c(C(=O)NOCCO)cc21 [Selumetinib] + C[C@@H]1COCCN1C2=NC(=NC(=C2)C3(CC3)[S@](=N)(=O)C)C4=C5C=CNC5=NC=C4 [AZD6738] (first compound max 10 µM, 7x7, partner max 10 µM)	-0.0388	-0.025	0.0087	0.0046	-0.0585	-0.0402	0.0325	-0.0203	-0.0338	-0.11	0.0257	-0.0145	-0.0911	-0.0148	0.0029	-0.0397	-0.0676	0.0059	-0.0734	-0.0737
NC1(C(=O)N[C@@H](CCO)c2ccc(Cl)cc2)CCN(c2ncnc3[nH]ccc23)CC1 [Capivasertib] + CC(C)n1c(=O)n(C)c2cnc3cc(F)c(-c4ccc(OCCCN5CCCCC5)nc4)cc3c21 [AZD1390] (first compound max 10 µM, 7x7, partner max 0.3 µM)	-0.0254	-0.102	-0.0715	-0.0511	-0.0471	-0.0745	-0.0588	-0.0306	-0.0104	-0.0407	-0.0607	-0.024	-0.0382	-0.0579	-0.0771	-0.0696	-0.0281	0.002	-0.0895	-0.0822
CN(CCO)CC[C@H](CSc1ccccc1)Nc1ccc(S(=O)(=O)NC(=O)c2ccc(N3CCC([C@@H](O)c4ccccc4-c4ccc(Cl)cc4)CC3)cc2)cc1S(=O)(=O)C(F)(F)F [AZD4320] + C[C@@H](Nc1cc(F)cc(F)c1)c1cc(C(=O)N(C)C)cc2c(=O)cc(N3CCOCC3)oc12 [AZD8186] (first compound max 1 µM, 7x7, partner max 3 µM)	-0.0144	0.0174	0.0084	-0.0076	0.136	0.0516	-0.0165	0.0338	-0.0251	-0.0141	0.0019	0.0195	0.0323	-0.0063	-0.0163	0.0358	0.0236	0.0774	-0.0381	0.0357
Cc1c2c(nn1C)CSCc1cc(n(C)n1)CSc1cc(c3ccccc3c1)OCCCc1c(C(=O)O)n(C)c3c-2c(Cl)ccc13 [AZD5991] + C[C@@H](Nc1cc(F)cc(F)c1)c1cc(C(=O)N(C)C)cc2c(=O)cc(N3CCOCC3)oc12 [AZD8186] (first compound max 1 µM, 7x7, partner max 3 µM)	-0.0172	-0.015	0.0157	-0.0331	0.0995	-0.0254	-0.024	0.0836	-0.004	0.0294	-0.0031	0.0635	-0.0799	-0.032	-0.0452	0.0182	-0.0094	0.0105	-0.0603	0.0098
CCN(CCO)CCCOc1ccc2c(Nc3cc(CC(=O)Nc4cccc(F)c4)[nH]n3)ncnc2c1 [AZD2811] + C[C@@H]1COCCN1C2=NC(=NC(=C2)C3(CC3)[S@](=N)(=O)C)C4=C5C=CNC5=NC=C4 [AZD6738] (first compound max 1 µM, 7x7, partner max 10 µM)	-0.0582	-0.103	-0.0262	-0.0524	-0.0482	-0.0341	-0.0625	0.0031	-0.0621	-0.0619	0.0315	0.0773	-0.0799	-0.0192	-0.0878	0.0216	-0.0332	-0.0704	0.02	-0.103
COc1cccc(OCCCN)c1-c1cc(Nc2cnc(C#N)cn2)n[nH]1 [Prexasertib] + O=C(c1cc(Cc2n[nH]c(=O)c3ccccc23)ccc1F)N1CCN(C(=O)C2CC2)CC1 [Olaparib] (first compound max 1 µM, 7x7, partner max 10 µM)	0.0048	-0.127	-0.009	-0.0666	0.0058	-0.0106	-0.0683	-0.104	-0.0284	0.0032	0.0102	-0.0421	-0.0535	0.0116	-0.0326	-0.0036	-0.0009	-0.0113	-0.162	-0.0707
